Measurements published in US20070025986A1, “Modulation of HCN channels by second messengers” (priority 2003, published 2007).

Columns and labels:
HCN1 channel = test: Two microelectrode voltage clamp (2MEV) of HCN1 and HCN1 mutants expressed in Xenopus oocytes; type: cell-based, mouse; details: for Effect on channel activation: HCN1-R538E, 30 μM, 60 minutes perfusion; for Effect on channel gating: wild type HCN1, 200 nM
[1] = tested on: DAG concentration in Xenopus oocytes; details: 60 minute incubation; cited from earlier work
[2] = tested on: HCN1 channel (wild type, CNBD-disabled and deletion constructs); test: Modulation of HCN1 activation gating by the PTK inhibitor genistein; type: cell-based, mouse
Procedure: (§1) The effect of PTK inhibitor genistein on HCN channel activation was studies using wild type and CNBD-disabled HCN channels. Recordings were made in the presence and absence of genistein.
(§2) Activation of wild type HCN channels and mutant HCN channels with mutation in the C-linker or CNBD domains was recorded in the presence and absence of PTK inhibitor genistein.
The results in FIG. 18B show the effect of genistein treatment to activation of HCN1-R538E, HCN1-ΔCNBD and HCN1-ΔCterm. Left Panel: Change in V1/2 (V1/2 Final−V1/2 Initial) in control and genistein treated cells (90 μM for 30 min).

[3] = tested on: HCN2 channel (wild type and CNBD-disabled); test: Modulation of HCN2 activation gating by the PTK inhibitor genistein; type: cell-based, mouse
Procedure: as §1, §2

[4] = tested on: DmHCN (HCN channel of Drosophila melanogaster); type: cell-based
HCN2 channel = details: for Effect on channel gating: 200 nM
Procedure: Electrophysiology-General. Recordings were made in either IOP (excised cell-free inside out patch) or 2 MEV (two microelectrode voltage clamp) configurations from Xenopus oocytes 1-5 days after cRNA injection. In both configurations, the Ag—AgCl ground wire(s) were connected to the bath solution by 3M KCl-2% agar salt bridge electrodes placed downstream of, but close to, the oocyte. All recordings were obtained at room temperature (23-25° C.).
Electrophysiology-Two microelectrode voltage-clamp recordings. Data were acquired using a Warner Instruments (Hamden, Conn.) OC-725B amplifier, filtered at 1 kHz then digitized at 2 kHz using an ITC-18 interface and recorded with Pulse software (as described above). For most experiments, oocytes were bathed in a recording solution containing (in mM): 107 KCl, 5 NaCl, 10 HEPES (free acid), and 2 MgCl2, pH 7.4, with NaOH. However, to screen for poorly expressing constructs a recording solution containing (in mM): 112 KCl, 10 HEPES (free acid), and 2 MgCl2, pH 7.4, with KOH, was used to maximize the amplitude of the currents. Under these conditions, tail currents were recorded at the holding potential, −30 mV. The microelectrodes were filled with 3M KCl and had resistances of 0.1-0.5 MΩ (I passing) and 1-4 MΩ (V sensing). An active virtual ground was used to clamp the bath.
Analysis of electrophysiological recordings. “Steady-state” activation curves were determined from the amplitude of tail currents observed after hyperpolarizing voltage steps on return to the indicated potential. For IOP-clamp experiments, the holding potential and the tail potential was −40 mV. For 2 MEV-clamp experiments, the oocytes were held at −30 mV and the tail amplitudes measured at 0 mV. To avert any systematic bias of the determination of the V1/2 in a particular drug and clone combination, at least 10 cells from at least 5 donor frogs were routinely measured with recordings made across a number of weeks.
Tail current amplitudes were measured by averaging the current during the plateau of the tail after allowing the voltage-clamp to settle and the uncompensated linear capacitance to decay and subtracting from this the baseline current recorded 3s later. […] Current values were plotted versus the hyperpolarization step voltage and fitted with the Boltzmann equation: I(V=A1+A2/{1+exp[(V−V1/2)/s]}, where A1 is an offset caused by a nonzero holding current, A2 is the maximal tail current amplitude, V is voltage during the hyperpolarizing test pulse in millivolts, and V1/2 is the activation midpoint voltage. For each experiment, the tail current data were fitted with the above equation. To average the activation data from different experiments, the tail current amplitudes, I(V), from each individual experiment were normalized by first subtracting the derived A1 parameter and then dividing by A2. The normalized data at each voltage were then averaged, and the averaged data were fitted by the Boltzmann equation (with A1 set at 0 and A2 set at 1).

HCN4 channel = details: for Effect on channel gating: 200 nM
plant channel KAT1 = details: 200 nM 4βPMA

O=c1c2ccccc2[nH]c(=S)n1CCN1CCC(=C(c2ccc(F)cc2)c2ccc(F)cc2)CC1 [R59949]
Effect on channel activation (HCN1 channel): facilitates
DAG concentration in Xenopus oocytes [1]: double

O=c1c(-c2ccc(O)cc2)coc2cc(O)cc(O)c12 [genistein]
Effect on activation curve ([2]; HCN1-R538E (CNBD disabled)): robust facilitation
Genistein facilitation, Δ(ΔV1/2), compared with HCN1-R538E ([2]; HCN1-ΔCNBD, 90 μM for 30 min): the same
Genistein sensitivity, Δ(ΔV1/2) ([2]; HCN1-ΔCterm (C-linker deleted), 90 μM for 30 min): insensitive
Effect on activation curve ([2]; wild type HCN1): weak facilitation
Effect on activation curve ([3]; HCN2-R591E (CNBD disabled)): facilitation
Genistein facilitation ([3]; cAMP insensitive HCN2 constructs): independent of the CNBD
Effect on activation curve ([3]; wild type HCN2): inhibition

CCCCCCCCCCCCCC(=O)O[C@@H]1[C@@H](C)[C@@]2(O)[C@@H](C=C(CO)C[C@]3(O)C(=O)C(C)=C[C@@H]23)[C@@H]2C(C)(C)[C@]12OC(C)=O [4βPMA, 4-βphorbol-1 2myristate-13-acetate]
ΔV½ CA UNCOUPLED (HCN1 channel; HCN1, 30 min in 200 nM 4βPMA): +29 ± 3
ΔV½ CA UNCOUPLED H^+ UNCOUPLED (HCN1 channel; HCN1, 30 min in 200 nM 4βPMA): +32 ± 5
ΔV½ WILD TYPE (HCN1 channel; HCN1, 30 min in 200 nM 4βPMA): +15 ± 3
4βPMA facilitation of gating in serine, threonine and tyrosine mutants (HCN1 channel; mutants of HCN1-ΔNvΔC, 200 nM 4βPMA, 30 minutes): not affected
Effect on channel gating (HCN1 channel): facilitated
Effect on channel gating [4]: facilitated
ΔV½ WILD TYPE [4]: +9 ± 4
Effect on channel gating (HCN2 channel): facilitated
ΔV½ CA UNCOUPLED (HCN2 channel; 30 min in 200 nM 4βPMA): +15 ± 2
ΔV½ CA UNCOUPLED H^+ UNCOUPLED (HCN2 channel; 30 min in 200 nM 4βPMA): +26 ± 3
ΔV½ WILD TYPE (HCN2 channel; 30 min in 200 nM 4βPMA): +8 ± 2
Effect on channel gating (HCN4 channel): facilitated
ΔV½ WILD TYPE (HCN4 channel; 30 min in 200 nM 4βPMA): +17 ± 7
Effect on channel activation (plant channel KAT1): insensitive

Cc1nc2sccn2c(=O)c1CCN1CCC(=C(c2ccccc2)c2ccc(F)cc2)CC1 [R59022]
Effect on channel activation (HCN1 channel): facilitates
DAG concentration in Xenopus oocytes [1]: double

CCCCCCCCCCCCCC(=O)O[C@@H]1[C@@H](C)[C@@]2(O)[C@@H](C=C(CO)C[C@@]3(O)C(=O)C(C)=C[C@@H]23)[C@@H]2C(C)(C)[C@]12OC(C)=O [4αPMA]
Effect on channel gating (HCN1 channel): unaffected
Effect on channel gating [4]: unaffected
Effect on channel gating (HCN2 channel): unaffected
Effect on channel gating (HCN4 channel): unaffected
